Columns and labels:
c-Met = conditions: no reference given; cited from earlier work
c-Src = c-Src (Gallus gallus, UniProt P00523); experiment: biochemical; design: species or system Chicken
[1] = system: c-Met mutations of D1228 and Y1230; conditions: cited from earlier work; for affinity against mutations of D1228 and Y1230: type I inhibitors, Fig. S10
[2] = system: c-Met mutations of L1195 and F1200; conditions: type I inhibitors; Fig. S10; cited from earlier work
c-Met F1200I mutant = conditions: Fig. S10; cited from earlier work

Compound	affinity against mutations of D1228 and Y1230 [1]	activity against mutations of L1195 and F1200 [2]	further results
C[C@H]1CNC(=O)c2cnn3ccc(nc23)N[C@H](C)c2cc(F)ccc2O1 [TPX-0005]	–	–	affinity for c-Met (c-Met): low affinity
CCN1Cc2c(ccc(F)c2C#N)O[C@@H](C)CNC(=O)c2c(N)nn3ccc1nc23 [TPX-0022]	–	–	IC50 (c-Src): 3.7 nM
COc1cc2nccc(Oc3ccc(NC(=O)C4(C(=O)Nc5ccc(F)cc5)CC4)cc3)c2cc1OC [cabozantinib]	–	–	ability to overcome mutations of D1228 and Y1230 ([1]; type II inhibitor): could overcome
CNC(=O)c1ccc(-c2cnc3ncc(Cc4ccc5ncccc5c4)n3n2)cc1F [capmatinib]	low affinity	potent activity	–
C[C@@H](Oc1cc(-c2cnn(C3CCNCC3)c2)cnc1N)c1c(Cl)ccc(F)c1Cl [crizotinib]	–	–	potency for the F1200I mutant (c-Met F1200I mutant): 50 to 200 nM
C[C@@H](c1ccc2nccn2c1)n1nnc2ncc(-c3cnn(C)c3)nc21 [savolitinib]	low affinity	potent activity	–
CN1CCC(COc2cnc(-c3cccc(Cn4nc(-c5cccc(C#N)c5)ccc4=O)c3)nc2)CC1 [tepotinib]	low affinity	potent activity	–

Reference: paper PMC10708960 (Computational and Structural Biotechnology Journal, 2023)
